{"source": "patent US20030087395A1", "about": "“Cardiotrophin-like cytokine” (Human Genome Sciences, Inc., priority 1997, published 2003)", "key": {"[1]": {"test_system": "NF-κB promoter element in Jurkat T-cells", "experiment": "NF-κB/SEAP screening assay in Jurkat T-cells", "assay_type": "cell-based", "details": "0.1, 1, 10 ng, typically observed", "experimental": "Due to its central role and ability to respond to a range of stimuli, reporter constructs utilizing the NF-κB promoter element are used to screen the supernatants produced in Example 6. Activators or inhibitors of NF-κB would be useful in treating diseases. For example, inhibitors of NF-κB could be used to treat those diseases related to the acute or chronic activation of NF-κB, such as rheumatoid arthritis and others.\nPCR amplification is performed using the SV40 promoter template present in the pb-gal:promoter plasmid obtained from Clontech. The resulting PCR fragment is digested with Xho I and Hind III and subcloned into BLSK2-(Stratagene). Sequencing with the T7 and T3 primers confirms the insert contains the following sequence: 5′-CTC\nNext, replace the SV40 minimal promoter element present in the pSEAP2-promoter plasmid (Clontech) with this NF-κB/SV40 fragment using Xho I and Hind III.\nParticularly, the NF-κB/SV40/SEAP cassette was inserted into pGFP-1 (Clontech), replacing the GFP gene, after restricting pGFP- 1 with Sal I and Not I.\nOnce NF-κB/SV40/SEAP/Neo vector is created, stable Jurkat T-cells are created and maintained according to the protocol described in Example 9. Similarly, the method for assaying supernatants with these stable Jurkat T-cells is also described in Example 9. […]"}, "[2]": {"test_system": "PC12 cells", "experiment": "EGR-SEAP/PC12 screening assay for neuronal activity", "assay_type": "cell-based, rat", "details": "50 ng/ul; PC12 EGR-SEAP; typically seen", "description": "Particularly, the following protocol is used to assess neuronal activity in PC12 cell lines. PC12 cells (rat phenochromocytoma cells) are known to proliferate and/or differentiate by activation with a number of mitogens, such as TPA (tetradecanoyl phorbol acetate), NGF (nerve growth factor), and EGF (epidermal growth factor). The EGR1 gene expression is activated during this treatment. Thus, by stably transfecting PC12 cells with a construct containing an EGR promoter linked to SEAP reporter, activation of PC12 cells by CLC can be assessed.\nThe EGR/SEAP reporter construct can be assembled by the following protocol. The EGR-1 promoter sequence (−633 to +1; Sakamoto, K., et al., Oncogene 6:867-871 (1991)) can be PCR amplified from human genomic DNA using the following primers. The 5′ primer has the sequence: 5′-GCGCTCGAGGGATGACAGCGATAGAACCCCGG-3′ (SEQ ID NO:19) and the 3′ primer has the sequence: 5′-GCGAAGCTTCGCGACTCCCCGGATCCGCCTC-3′ (SEQ ID NO:20).\nUsing the GAS:SEAP/Neo vector produced in Example 6, EGR1 amplified product can then be inserted into this vector. Linearize the GAS:SEAP/Neo vector using restriction enzymes Xho I and Hind III, removing the GAS/SV40 stuffer. Restrict the EGR1 amplified product with these same enzymes. Ligate the vector and the EGR1 promoter. […]"}, "[3]": {"test_system": "STATS", "details": "numbers of the STATs activated; adapted from Schidler and Darnell review; cited from earlier work"}, "[4]": {"test_system": "Jurkat T-cells", "experiment": "Jurkat:GAS-SEAP screening assay for T-cell activity", "assay_type": "cell-based", "details": "100 Unit/ml, typically observed", "experimental": "The following protocol is used to assess T-cell activity of CLC by determining whether CLC supernatant proliferates and/or differentiates T-cells. T-cell activity is assessed using the GAS/SEAP/Neo construct produced in Example 6. Thus, factors that increase SEAP activity indicate the ability to activate the Jaks-STATs signal transduction pathway. The T-cell used in this assay is Jurkat T-cells (ATCC Accession No. TIB-152), although Molt-3 cells (ATCC Accession No. CRL-1552) and Molt-4 cells (ATCC Accession No. CRL-1582) cells can also be used.\nJurkat T-cells are lymphoblastic CD4+ Th1 helper cells. In order to generate stable cell lines, approximately 2 million Jurkat cells are transfected with the GAS-SEAP/neo vector using DMRIE-C (Life Technologies; transfection procedure described below). The transfected cells are seeded to a density of approximately 20,000 cells per well and transfectants resistant to 1 mg/ml geneticin selected. Resistant colonies are expanded and then tested for their response to increasing concentrations of interferon gamma.\nSpecifically, the following protocol will yield sufficient cells for 75 wells containing 200 μl of cells. Thus, it is either scaled up, or performed in multiple to generate sufficient cells for multiple 96 well plates. Jurkat cells are maintained in RPMI+10% serum with 1% Pen-Strep. […]"}, "[5]": {"test_system": "U937 cells", "experiment": "GAS-SEAP/U937 assay identifying myeloid activity", "assay_type": "cell-based", "details": "100 Unit/ml; U937 GAS-SEAP; typically observed", "experimental": "The following protocol is used to assess myeloid activity of CLC by determining whether CLC proliferates and/or differentiates myeloid cells. Myeloid cell activity is assessed using the GAS/SEAP/Neo construct produced in Example 6. Thus, factors that increase SEAP activity indicate the ability to activate the Jaks-STATS signal transduction pathway. The myeloid cell used in this assay is U937, a pre-monocyte cell line, although TF-1, HL60, or KG1 can be used.\nTo transiently transfect U937 cells with the GAS/SEAP/Neo construct produced in Example 6, a DEAE-Dextran method (Kharbanda, et. al., Cell Growth & Differentiation 5:259-265 (1994)) is used. First, harvest 2×10^7 U937 cells and wash with PBS. The U937 cells are usually grown in RPMI 1640 medium containing 10% heat-inactivated fetal bovine serum (FBS) supplemented with 100 units/ml penicillin and […] streptomycin.\nNext, suspend the cells in 1 ml of 20 mM Tris-HCl (pH 7.4) buffer containing 0.5 mg/ml DEAE-Dextran, 8 ug GAS-SEAP2 plasmid DNA, 140 mM NaCl, 5 mM KCl, 375 μM Na2HPO47H2O, […], and 675 μM CaCl2. Incubate at 37° C. for 45 min.\nWash the cells with RPMI 1640 medium containing 10% FBS and then resuspend in 10 ml complete medium and incubate at 37° C. for 36 hr.\nThe GAS-SEAP/U937 stable cells are obtained by growing the cells in 400 μg/ml G418. […]"}, "[6]": {"test_system": "GAS or ISRE", "details": "element bound; adapted from Schidler and Darnell review; cited from earlier work"}}}
{"substance": "TNF alpha", "values": [{"measurement": "activation in positive control wells", "setting": "[1]", "value": "5-10 fold"}]}
{"substance": "NGF: growth factor known to activate PC12 cells through EGR", "values": [{"measurement": "induction of SEAP in positive control wells", "setting": "[2]", "value": "Over fifty-fold induction"}]}
{"substance": "interferon gamma: positive control known to activate Jurkat T cells and U937 cells [reference compound]", "values": [{"measurement": "STATS", "setting": "[3]", "value": 1}, {"measurement": "induction of SEAP in positive control wells", "setting": "[4]", "value": "Over 30 fold"}, {"measurement": "induction of SEAP in positive control wells", "setting": "[5]", "value": "Over 30 fold"}, {"measurement": "GAS or ISRE", "setting": "[6]", "value": "GAS"}]}
